Measured values taken from patent publication US12239643B2, “Therapeutic agent for inflammatory diseases, autoimmune diseases, fibrotic diseases, and cancer diseases” (MEIJI SEIKA PHARMA CO., LTD., priority 2018, dated 2025).
Like-named read-outs stand apart in the source and are kept apart here.

How the values were obtained:
PDE4 = assay: Evaluation of PDE4 inhibitory activity, scintillation proximity assay; format: biochemical; conditions: for PDE4 inhibitory activity: summary in words of Tables 57 to 69
Outline: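 SPA with [2,8-3H]-cAMP and diluted PDE4 enzyme preparation in 50 mM Tris-HCl pH 7.4, 8.3 mM MgCl2, 1.7 mM EGTA, 3 mg/mL BSA, 120 min at room temperature. Product captured on ZnSO4-containing YSi-SPA beads, scintillation counted; IC50 from inhibition curves vs DMSO control and no-enzyme blank.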

[1] = Hepatic metabolic stability (rat liver microsome method); format: in vitro ADME; conditions: rat liver microsomes 0.5 mg/mL, test substance 1 μM, NADPH 1 mM, 37° C., 30 minutes
Outline: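 Rat liver microsomes (0.5 mg/mL final) with test compound (1 μM final) in 100 mM potassium phosphate pH 7.4, 37° C; reaction started with NADPH (1 mM final) after 5 min preincubation. Acetonitrile stop at 0 and 30 min, LC-MS quantitation; % remaining = 30 min/0 min ×100, graded A ≥75%, B 60–<75%, C 45–<60%, D <45%.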

TNFα [2] = assay: Cytokine suppression using whole human blood: TNFα (lipopolysaccharide stimulus); format: cell-based; conditions: human whole blood, read-out: TNFα Inhibitory Activity, Human Whole Blood (Test Example 3)
Procedure: The test compound dissolved in dimethyl sulfoxide was added to a 96-well plate, and RPMI-1640 medium and human peripheral blood containing sodium heparin were added, followed by culture at 37° C. under 5% CO2 for 1 hour. A medium containing only dimethyl sulfoxide instead of the test compound was added to the control well. To each well, lipopolysaccharide (final concentration 10 ng/mL) as a TNFα production stimulant, or phytohaemagglutinin (final concentration 20 μg/mL) as an IL-17A production stimulant, or CytoStim reagent ( 1/100 concentration) and CD28 antibody (final concentration 2.5 ng/mL) as an IL-4 production stimulant and an IL-5 production stimulant were added, followed by culture at 37° C. under 5% CO2. The culture was carried out for about 18 hours for the evaluation of the amount of TNFα, and for about 48 hours for the evaluation of the amounts of IL-17A, IL-4, and IL-5.
After collecting the culture supernatant after culturing, the amount of each cytokine was measured by the sandwich ELISA method. The cytokine production suppression rate (inhibition rate) by the test compound was calculated by the following formula from the cytokine production amount when the test compound was added, with the cytokine production amount for the control well as 100%. Inhibition Rate={1−(Cytokine Amount at Addition of Each Test Compound)/(Cytokine Amount for Control Well)}×100
In addition, the cytokine inhibitory activity (concentration for the inhibition rate of 50%) of the test compound was calculated from the inhibition curves based on the inhibition rates for various concentrations of the test compound.
The measurement results obtained by measuring the TNFα inhibitory activity and IL-5 inhibitory activity (50% inhibitory concentration) of the test compounds by the above method were evaluated in accordance with the following evaluated basis; A: less than 100 nM, B: 100 nM or more and less than 500 nM, and C: 500 nM or more. In addition, the measurement results obtained by measuring the IL-17A inhibitory activity and IL-4 inhibitory activity (50% inhibitory concentration) of the test compounds were evaluated in accordance with the following evaluated basis; A: less than 500 nM, B: 500 nM or more and less than 5000 nM, and C: 5000 nM or more.

[3] = tested on: oxazolone-induced auricle edema, BALB/c mice; assay: Hapten repeated application mouse chronic dermatitis model (oral, topical); format: in vivo; conditions: oral, 0.3 to 10 mg/kg twice a day for 10 days
Procedure: Evaluation was carried out using female BALB/c mice (7 to 8 weeks of age). First, the hair of the abdomen of the mice was treated with a hair clipper, and then 150 μL of a 3% oxazolone acetone/ethanol solution was applied to the abdomen as a hapten. One week later, 20 μL/ear of 1% oxazolone acetone/ethanol solution was applied to the outer surface of the auricle of both ears of the mice 3 times/week to induce inflammation. A 1% oxazolone-acetone/ethanol solution was applied every other day for 10 days from 1 week after the start of inflammation induction. In addition, for 10 days from 1 week after the start of inflammation induction, the test compound suspended in 0.5% w/v methylcellulose (0.5% MC) was orally administered at 0.3 to 10 mg/kg twice a day (10 μL/g), or 20 μL of a 0.3 to 3% test compound dissolved in an acetone/ethanol solution was applied once or twice a day (topical administration). A 1% oxazolone was not applied to the blank. The control was one in which 1% oxazolone was applied and only 0.5% MC was orally administered without using the test compound, or only an acetone/ethanol solution was applied.
After administration for 10 days, auricle thickness was measured using a dial thickness gauge, and the changes in auricular thickness before the treatment (immediately before the start of administration of the test compound) and after the treatment (after the administration of the test compound for 10 days) were used to calculate the edema suppression rate by the following formula. Edema Suppression Rate (%)={1−(Auricle Thickness After Treatment by Test Compound−Auricle Thickness Before Treatment by Test Compound)/(Auricle Thickness After Treatment of Control−Auricle Thickness Before Treatment of Control)}×100
The measurement results obtained by measuring the edema suppression rate at the time of oral administration of each test compound by the above method were evaluated in accordance with the following evaluated basis; A: 70% or more, B: 40% or more and less than 70%, and C: less than 40%. In addition, the measurement results obtained by measuring the edema suppression rate at the time of topical administration of each test compound were evaluated in accordance with the following evaluated basis; A: 100% or more, B: 70% or more and less than 100%, and C: less than 70%.

TGF-β = TGF-β inhibitory activity using THP1 cells differentiated into macrophages; format: cell-based; conditions: Homo sapiens, THP-1; THP1 cells differentiated into macrophages, lipopolysaccharide 1 μg/mL, about 7 hours; read-out: TFG-β Inhibitory Activity (Test Example 6)
Procedure: The TGF-β inhibitory activity was measured using THP1 cells as follows. First, THP1 cells were seeded on a 24-well culture plate at […], and culture was carried out overnight at 37° C. and 5% CO2 in RPMI-1640 medium (containing 10% fetal bovine serum, penicillin, and streptomycin) supplemented with 100 nM phorbol myristate acetate. After that, the cells were differentiated into macrophages by changing to RPMI-1640 medium without phorbol myristate acetate, followed by further culture at 37° C. under 5% CO2 overnight. Next, the THP1 culture plate was washed once with PBS(−) 1 mL/well, and then the test compound and lipopolysaccharide (final concentration 1 μg/mL) were added, followed by culture at 37° C. under 5% CO2 for about 7 hours. After culturing, the entire amount of the medium was collected, and the amount of TGF-β in the centrifuged supernatant was quantified by the sandwich ELISA method. The non-addition of lipopolysaccharide was used as a blank, and the control was obtained by adding only dimethyl sulfoxide instead of the test compound, and the inhibition rate of the test compound against the control was calculated by the following formula. Inhibition Rate (%)={1−(Value at Addition of Each Test Compound−Blank Value)/(Control Value−Blank Value)}×100
In addition, the TGF-β inhibitory activity (concentration for the inhibition rate of 50%) of the test compound was calculated from the inhibition curves based on the inhibition rate for various concentrations of the test compound.
The measurement results obtained by measuring the TFG-β inhibitory activity (50% inhibitory concentration) of the test compounds by the above method were evaluated in accordance with the following evaluated basis; A: less than 1 μM, and B: 1 μM or more.

TNFα [4] = assay: Cytokine suppression using human peripheral blood mononuclear cells: TNFα; format: cell-based; conditions: human PBMC, lipopolysaccharide 1 ng/mL; read-out: TNFα Inhibitory Activity, Human PBMC (Test Example 4)
Procedure: First, peripheral blood mononuclear cells (PBMC) were separated from whole blood by specific gravity centrifugation. Then, the isolated peripheral blood mononuclear cells were added to RPMI-1640 medium (containing 10% fetal bovine serum, penicillin, streptomycin, L-glutamine, and 2-mercaptoethanol), and cultured in a 96-well plate at 37° C. under 5% CO2 for 0 to 1 hour. The test compound dissolved in dimethyl sulfoxide was added to each well, followed by further culture at 37° C. under 5% CO2 for 1 hour. A medium containing only dimethyl sulfoxide instead of the test compound was added to the control well. To each well, lipopolysaccharide (final concentration 1 ng/mL) as a TNFα production stimulant and an IL-23 production stimulant, or concanavalin A (final concentration 20 μg/mL) as an IL-17A production stimulant was added, followed by culture at 37° C. under 5% CO2. In addition, as IL-4 production stimulus, IL-5 production stimulus, and IL-13 production stimulus, PBMC was seeded on a 96-well plate previously coated with a CD3 antibody (final concentration 3 μg/mL), and a CD28 antibody (final concentration 5 ng/mL) was added. The culture was carried out for about 18 hours for the evaluation of the amounts of TNFα and IL-23, and about 48 hours for the evaluation of the amounts of IL-17A, IL-4, IL-5, and IL-13. After collecting the culture supernatant after culturing, the amount of each cytokine was measured by the sandwich ELISA method in the same manner as in Test Example 3, and the cytokine production suppression rate (inhibition rate) and the cytokine inhibitory activity (concentration for the inhibition rate of 50%) of each test compound were calculated.
The measurement results obtained by measuring the TNFα inhibitory activity and IL-5 inhibitory activity (50% inhibitory concentration) of the test compounds by the above method were evaluated in accordance with the following evaluated basis; A: less than 10 nM, B: 10 nM or more and less than 100 nM, and C: 100 nM or more. In addition, the measurement results obtained by measuring the IL-17A inhibitory activity, IL-23 inhibitory activity, IL-4 inhibitory activity, and IL-13 inhibitory activity (50% inhibitory concentration) of the test compounds were evaluated in accordance with the following evaluated basis; A: less than 500 nM, B: 500 nM or more and less than 5000 nM, and C: 5000 nM or more.

[5] = finer grading of compounds rated A in Evaluation 1, read-out: PDE4 Inhibitory Activity (Evaluation 2)
[6] = scintillation proximity assay, read-out: PDE4 Inhibitory Activity (Evaluation 1; concentration for the inhibition rate of 50%)
[7] = scintillation proximity assay, class symbols of Evaluation 1, read-out: PDE4 Inhibitory Activity (concentration for the inhibition rate of 50%, IC50), Evaluation 1

| Compound | IC50 (PDE4; [5]) | IC50 (PDE4; [6]) | PDE4 inhibitory activity (PDE4) | Residual ratio (% remaining for 30-minute reaction) [1] | IC50 (TNFα [2]; Homo sapiens) | Mouse Chronic Dermatitis Model (Test Example 8), Oral: edema suppression rate [3] | IC50 (PDE4; [7]) | IC50 (TGF-β) | IC50 (TNFα [2]) | IC50 (TNFα [4]) |
| --- | --- | --- | --- | --- | --- | --- | --- | --- | --- | --- |
| OCC(F)(F)Oc1ccc(-c2nccs2)c2oc(N3CC4CC(C3)N4)nc12 [Example 249, 2-((2-(3,6-Diazabicyclo[3.1.1]heptan-3-yl)-7-(thiazol-2-yl)benzo[d]oxazol-4-yl)oxy)-2,2-difluoroethan-1-ol] | ≤ 1 nM | < 100 nM | particularly excellent | B (B: 60% or more and less than 75%) | < 100 nM | B (B: 40% or more and less than 70%) | – | – | – | – |
| OC(c1ccc(-c2nccs2)c2oc(N3CC4CCC(C3)N4)nc12)C(F)(F)F (centres unmarked) [Example 118, 1-(2-(3,8-Diazabicyclo[3.2.1]octan-3-yl)-7-(thiazol-2-yl)benzo[d]oxazol-4-yl)-2,2,2-trifluoroethan-1-ol] | 1 to 11 nM | – | particularly excellent | – | 100 to 500 nM | B (B: 40% or more and less than 70%) | < 100 nM | – | – | – |
| CC(C)(O)c1cc(-c2nccs2)c2oc(N3CC4CCC(C3)N4)nc2c1OC(F)(F)F [Example 195, 2-(2-(3,8-diazabicyclo[3.2.1]octan-3-yl)-7-(thiazol-2-yl)-4-(trifluoromethoxy)benzo[d]oxazol-5-yl)propan-2-ol] | ≤ 1 nM | < 100 nM | particularly excellent | – | 100 to 500 nM | B (B: 40% or more and less than 70%) | – | < 1000 nM | – | – |
| COC(C)(C)c1cc(-c2nccs2)c2oc(N3CC4CCC(C3)N4)nc2c1OC(F)(F)F [Example 198, 2-(3,8-Diazabicyclo[3.2.1]octan-3-yl)-5-(2-methoxypropan-2-yl)-7-(thiazol-2-yl)-4-(trifluoromethoxy)benzo[d]oxazole] | ≤ 1 nM | < 100 nM | particularly excellent | – | 100 to 500 nM | – | – | – | – | – |
| OC(c1ccc(-c2nccs2)c2oc(N3CC4CCC(C3)N4)nc12)C(F)(F)F (centres unmarked) [Example 119, 1-(2-(3,8-Diazabicyclo[3.2.1]octan-3-yl)-7-(thiazol-2-yl)benzo[d]oxazol-4-yl)-2,2,2-trifluoroethan-1-ol] | ≤ 1 nM | – | particularly excellent | – | – | A (A: 70% or more) | < 100 nM | – | < 100 nM | < 10 nM |
| COC(C)(C)c1cc(-c2nccs2)c2oc(N3CC4CC(C3)N4)nc2c1C(F)(F)F [Example 176, 2-(3,6-Diazabicyclo[3.1.1]heptan-3-yl)-5-(2-methoxypropan-2-yl)-7-(thiazol-2-yl)-4-(trifluoromethyl)benzo[d]oxazole] | 1 to 11 nM | – | particularly excellent | – | 100 to 500 nM | B (B: 40% or more and less than 70%) | < 100 nM | – | – | – |
